Experimental data as given in PubChem BioAssay (NCI).
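Results reflect a 48-hour exposure of cells in 96-well plates to compound at five concentrations. GI50 marks 50% less growth. The concentration for full growth arrest is given as TGI.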

What was measured:
Experiment in all cases: NCI tumour cell line growth inhibition, 48 h
UACC-62 melanoma = test system: UACC-62 melanoma
SF-268 CNS = test system: SF-268 CNS
OVCAR-4 ovarian = test system: OVCAR-4 ovarian
HS 578T breast = test system: HS 578T breast
IGROV1 ovarian = test system: IGROV1 ovarian
OVCAR-8 ovarian = test system: OVCAR-8 ovarian
MOLT-4 leukemia = test system: MOLT-4 leukemia
SF-539 CNS = test system: SF-539 CNS
HOP-62 NSCLC = test system: HOP-62 NSCLC
M14 melanoma = test system: M14 melanoma
HOP-92 NSCLC = test system: HOP-92 NSCLC
HL-60(TB) leukemia = test system: HL-60(TB) leukemia
NCI/ADR-RES ovarian = test system: NCI/ADR-RES ovarian
DU-145 prostate = test system: DU-145 prostate
SK-MEL-2 melanoma = test system: SK-MEL-2 melanoma
LOX IMVI melanoma = test system: LOX IMVI melanoma
NCI-H460 lung = test system: NCI-H460 lung
TK-10 renal = test system: TK-10 renal
SK-OV-3 ovarian = test system: SK-OV-3 ovarian
HCT-116 colon = test system: HCT-116 colon
HCT-15 colon = test system: HCT-15 colon
PC-3 prostate = test system: PC-3 prostate
CAKI-1 renal = test system: CAKI-1 renal
UACC-257 melanoma = test system: UACC-257 melanoma
U251 CNS = test system: U251 CNS
SF-295 CNS = test system: SF-295 CNS
COLO 205 colon = test system: COLO 205 colon
SNB-75 CNS = test system: SNB-75 CNS
SK-MEL-5 melanoma = test system: SK-MEL-5 melanoma
SNB-19 CNS = test system: SNB-19 CNS
K-562 leukemia = test system: K-562 leukemia
EKVX NSCLC = test system: EKVX NSCLC
NCI-H226 lung = test system: NCI-H226 lung
SW-620 colon = test system: SW-620 colon
A498 renal = test system: A498 renal
RPMI-8226 leukemia = test system: RPMI-8226 leukemia
MCF7 breast = test system: MCF7 breast
A549 NSCLC = test system: A549 NSCLC
OVCAR-3 ovarian = test system: OVCAR-3 ovarian
RXF 393 renal = test system: RXF 393 renal
NCI-H522 lung = test system: NCI-H522 lung
MDA-MB-231 breast = test system: MDA-MB-231 breast
OVCAR-5 ovarian = test system: OVCAR-5 ovarian
MALME-3M melanoma = test system: MALME-3M melanoma
UO-31 renal = test system: UO-31 renal
SR leukemia = test system: SR leukemia
T-47D breast = test system: T-47D breast
KM12 colon = test system: KM12 colon
MDA-MB-435 = test system: MDA-MB-435
ACHN renal = test system: ACHN renal
NCI-H23 lung = test system: NCI-H23 lung
CCRF-CEM leukemia = test system: CCRF-CEM leukemia
HT29 colon = test system: HT29 colon
SK-MEL-28 melanoma = test system: SK-MEL-28 melanoma
BT-549 breast = test system: BT-549 breast
HCC-2998 colon = test system: HCC-2998 colon
SN12C renal = test system: SN12C renal
786-0 renal = test system: 786-0 renal

COc1cc(-c2cc(-c3ccc(N(C)C)cc3)nc(N3CCC(O)CC3)c2C#N)cc(OC)c1OC
GI50 (UACC-62 melanoma): 277 nM | TGI (UACC-62 melanoma): 741 nM | GI50 (SF-268 CNS): 1220 nM | TGI (SF-268 CNS): 5310 nM | GI50 (OVCAR-4 ovarian): 1210 nM | TGI (OVCAR-4 ovarian): > 100000 nM | GI50 (HS 578T breast): 5660 nM | TGI (HS 578T breast): > 100000 nM | GI50 (IGROV1 ovarian): 555 nM | TGI (IGROV1 ovarian): 38400 nM | GI50 (OVCAR-8 ovarian): 485 nM | TGI (OVCAR-8 ovarian): > 45700 nM | GI50 (MOLT-4 leukemia): 706 nM | TGI (MOLT-4 leukemia): 10700 nM | GI50 (SF-539 CNS): 820 nM | TGI (SF-539 CNS): 3240 nM | GI50 (HOP-62 NSCLC): 953 nM | TGI (HOP-62 NSCLC): 24300 nM | GI50 (M14 melanoma): 282 nM | TGI (M14 melanoma): 1300 nM | GI50 (HOP-92 NSCLC): 182 nM | TGI (HOP-92 NSCLC): 788 nM | GI50 (HL-60(TB) leukemia): 574 nM | TGI (HL-60(TB) leukemia): 4130 nM | GI50 (NCI/ADR-RES ovarian): 350 nM | TGI (NCI/ADR-RES ovarian): > 19800 nM | GI50 (DU-145 prostate): 853 nM | TGI (DU-145 prostate): > 79600 nM | GI50 (SK-MEL-2 melanoma): 370 nM | TGI (SK-MEL-2 melanoma): 1070 nM | GI50 (LOX IMVI melanoma): 45.5 nM | TGI (LOX IMVI melanoma): 205 nM | GI50 (NCI-H460 lung): 249 nM | TGI (NCI-H460 lung): 1900 nM | GI50 (TK-10 renal): 1810 nM | TGI (TK-10 renal): 15700 nM | GI50 (SK-OV-3 ovarian): 2110 nM | TGI (SK-OV-3 ovarian): 57700 nM | GI50 (HCT-116 colon): 287 nM | TGI (HCT-116 colon): 1650 nM | GI50 (HCT-15 colon): 306 nM | TGI (HCT-15 colon): 1860 nM | GI50 (PC-3 prostate): 895 nM | TGI (PC-3 prostate): > 100000 nM | GI50 (CAKI-1 renal): 22.4 nM | TGI (CAKI-1 renal): 700 nM | GI50 (UACC-257 melanoma): 300 nM | TGI (UACC-257 melanoma): 969 nM | GI50 (U251 CNS): 527 nM | TGI (U251 CNS): 2830 nM | GI50 (SF-295 CNS): 212 nM | TGI (SF-295 CNS): 518 nM | GI50 (COLO 205 colon): 532 nM | TGI (COLO 205 colon): 3420 nM | GI50 (SNB-75 CNS): 457 nM | TGI (SNB-75 CNS): 10100 nM | GI50 (SK-MEL-5 melanoma): 162 nM | TGI (SK-MEL-5 melanoma): 508 nM | GI50 (SNB-19 CNS): 2440 nM | TGI (SNB-19 CNS): 23800 nM | GI50 (K-562 leukemia): 367 nM | TGI (K-562 leukemia): 10500 nM | GI50 (EKVX NSCLC): 461 nM | TGI (EKVX NSCLC): > 100000 nM | GI50 (NCI-H226 lung): 717 nM | GI50 (SW-620 colon): 448 nM | TGI (SW-620 colon): > 35600 nM | GI50 (A498 renal): 1190 nM | TGI (A498 renal): 19100 nM | GI50 (RPMI-8226 leukemia): 181 nM | TGI (RPMI-8226 leukemia): 1740 nM | GI50 (MCF7 breast): 626 nM | TGI (MCF7 breast): 3420 nM | GI50 (A549 NSCLC): 378 nM | GI50 (OVCAR-3 ovarian): 1460 nM | TGI (OVCAR-3 ovarian): 3970 nM | GI50 (RXF 393 renal): 177 nM | TGI (RXF 393 renal): 3270 nM | GI50 (NCI-H522 lung): 338 nM | TGI (NCI-H522 lung): 1320 nM | GI50 (MDA-MB-231 breast): 392 nM | TGI (MDA-MB-231 breast): 3550 nM | GI50 (OVCAR-5 ovarian): 459 nM | TGI (OVCAR-5 ovarian): > 36300 nM | GI50 (MALME-3M melanoma): 475 nM | TGI (MALME-3M melanoma): 1540 nM | GI50 (UO-31 renal): 349 nM | TGI (UO-31 renal): 3340 nM | GI50 (SR leukemia): 432 nM | TGI (SR leukemia): 2940 nM | GI50 (T-47D breast): 458 nM | TGI (T-47D breast): 4070 nM | GI50 (KM12 colon): 579 nM | TGI (KM12 colon): 4000 nM | GI50 (MDA-MB-435): 325 nM | TGI (MDA-MB-435): 1270 nM | GI50 (ACHN renal): 478 nM | TGI (ACHN renal): > 100000 nM | GI50 (NCI-H23 lung): 1350 nM | TGI (NCI-H23 lung): 6740 nM | GI50 (CCRF-CEM leukemia): 598 nM | TGI (CCRF-CEM leukemia): > 100000 nM | GI50 (HT29 colon): 272 nM | TGI (HT29 colon): 1430 nM | GI50 (SK-MEL-28 melanoma): 992 nM | TGI (SK-MEL-28 melanoma): 3230 nM | GI50 (BT-549 breast): 688 nM | TGI (BT-549 breast): 6800 nM | GI50 (HCC-2998 colon): 540 nM | TGI (HCC-2998 colon): 6480 nM | GI50 (SN12C renal): 689 nM | TGI (SN12C renal): 6440 nM | GI50 (786-0 renal): 399 nM | TGI (786-0 renal): > 100000 nM
